Reference: US20250177329A1, “GPR120 AGONISTS FOR THE TREATMENT OF INFLAMMATORY BOWEL DISEASE” (Dompe' Farmaceutici SPA, priority 2022, published 2025)

Key:
[1] = Plasma pharmacokinetics after single oral administration to mice; type: in vivo; conditions: male, CD1, mouse, single oral dose (Dose_PO: 10.0-90.0 mg/kg)
Description: The purpose of this study was to evaluate plasma and tissue exposure of the following compounds after a single oral administration to mice: • 7-(3-(N-(4-fluoro-2,6-dimethylphenyl)sulfamoyl)phenyl)heptanoic acid (indicated below as DFL23806), • 7-(3-(N-(4-chloro-2,6-dimethylphenyl)sulfamoyl)phenyl)heptanoic acid (indicated below as DFL23914) • 7-(3-(N-(2,6-dimethyl-4-(trifluoromethyl)phenyl)sulfamoyl)phenyl)heptanoic acid (indicated below as DFL23922) • 7-(3-(N-(6-fluoro-4-methyl-[1,1′-biphenyl]-3-yl)sulfamoyl)phenyl)heptanoic acid (indicated below as DFL23916) • 7-(3-(N-(5-fluoro-3-methyl-[1,1′-biphenyl]-2-yl)sulfamoyl)phenyl)heptanoic acid (indicated below as DFL23917) • 7-(3-{[4-fluoro-2-methyl-5-(thiophen-2-yl)phenyl]sulfamoyl}phenyl)heptanoic acid (indicated below as DFL24102) […]
A retro-orbital, composite blood sampling at pre-dose or after dosing at 30 min, 1, 2, 6, 8 and 24 hours (three mice/time point) was carried out for the plasma pharmacokinetic assessment. Blood samples were collected in heparinized collection tubes. Samples were taken immediately onto ice and kept cool until centrifugation (10000 g for 3 minutes at about +4° C.). About 50 μL of plasma were stored in a freezer at −80° C. pending analysis.
After samples collection, bioanalysis for concentrations of the test compounds were done using HPLC-MS/MS methods and pharmacokinetic analysis of the compounds in plasma and tissues was performed according to standard non-compartmental approach using Watson system (v 7.6, Thermo Fisher Scientific Waltham, MA, USA) on mean concentration data.

[2] = Biodistribution in colon after single oral dose; type: in vivo; conditions: PO 90.0 mg/kg, male Swiss albino mice
Experimental: The biodistribution of DFL23806 in the proximal and distal colon was evaluated in male Swiss albino mice following single dose oral administration of DFL23806 90 mg/kg.
Colon concentration (ng/g) of DFL23806 after PO (90.0 mg/kg) dose administration to male Swiss albino mice.
Colon/Plasma ratio of DFL23806 after PO (90.0 mg/kg) dose administration to male Swiss albino mice.

human GPR120 [3] = target: T1, human GPR120 (Homo sapiens, UniProt Q5NUL3); experiment: Activation of GPR120 receptor; type: cell-based
T1 sequence (Q5NUL3 1-361): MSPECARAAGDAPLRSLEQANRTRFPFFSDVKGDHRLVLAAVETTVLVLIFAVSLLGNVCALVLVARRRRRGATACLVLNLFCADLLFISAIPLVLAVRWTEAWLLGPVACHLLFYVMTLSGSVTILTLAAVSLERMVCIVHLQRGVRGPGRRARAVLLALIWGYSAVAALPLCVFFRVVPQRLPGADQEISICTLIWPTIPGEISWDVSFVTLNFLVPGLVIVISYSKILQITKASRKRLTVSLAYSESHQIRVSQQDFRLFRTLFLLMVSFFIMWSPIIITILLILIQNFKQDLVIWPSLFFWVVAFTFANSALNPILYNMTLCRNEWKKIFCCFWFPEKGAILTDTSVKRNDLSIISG

human GPR120 [4] = target: T1, human GPR120; experiment: Internalization of GPR120 (Enzyme Fragment Complementation, DiscoverX); type: cell-based; conditions: at 100 μM

AUC(0-inf) [1]: 405 ng·h/mL
AUC(0-t) [1]: 354 ng·h/mL
Cmax [1]: 106 ng/mL
Tmax [1]: 0.5 h
half-life [1]: 5.8 h
Colon/Plasma ratio, Mean ([2]; 4.00 h, 90 mg/kg): 64.20
Kp at 1 h ([2]; mouse, colon/plasma, 1.00 h, read-out: Colon/Plasma ratio, Mean): 1.63
Kp at 4 h ([2]; mouse, colon/plasma, 4.00 h, read-out: Colon/Plasma ratio, Mean): 64.2
concentration at 1 h ([2]; mouse, colon, 1.00 h): 68.3 ng/g
concentration at 4 h ([2]; mouse, colon, 4.00 h): 3570 ng/g
AC50 (human GPR120 [3]): 3.9 µM
efficacy of internalization of the human GPR120 receptor (human GPR120 [4]): 59.1%
SMILES: Cc1cc(F)cc(C)c1NS(=O)(=O)c1cccc(CCCCCCC(=O)O)c1 [DFL23806, 7-(3-(N-(4-fluoro-2,6-dimethylphenyl)sulfamoyl)phenyl)heptanoic acid]
